In data set [1] the test system is RAW264.7. Briefly: Cytotoxicity against mouse RAW264.7 cells assessed as cell viability at 20 uM incubated for 24 hrs by CCK8 assay. Format: toxicity, cell-based. As to conditions: raw264.7, 24 h. A general note: Tetrazolium dyes change colour on reduction, which living cells bring about.
The test system of data set [2] is RAW264.7. In words: Anti-inflammatory activity in mouse RAW264.7 cells assessed as inhibition of LPS-induced NO production incubated for 24 hrs. It counts as functional, cell-based. As to conditions: for IC50: RAW264.7, 24 h; for inhibition: dose 1.25-20 µM.
Data set [3] concerns RAW264.7. In words: Anti-inflammatory activity in mouse RAW264.7 cells assessed as inhibition of LPS-induced NO production at 10 uM incubated for 24 hrs relative to control. It counts as functional.

In the case of `C[C@H](CCC(=O)N1CCN(C(=O)/C=C/c2ccc(O)cc2)CC1)[C@H]1CC[C@H]2[C@@H]3[C@@H](O)C[C@@H]4C[C@H](O)CC[C@]4(C)[C@H]3CC[C@]12C`, the Activity result in the data set on RAW264.7 [1] is “Non-Toxic”.

By IC50 is commonly meant the point on the concentration scale where inhibition reaches its midpoint. For orientation: inhibition means how much of the control response was suppressed. For `C[C@H](CCC(=O)N1CCN(C(=O)/C=C/c2ccc(Cl)cc2)CC1)[C@H]1CC[C@H]2[C@@H]3[C@@H](O)C[C@@H]4C[C@H](O)CC[C@]4(C)[C@H]3CC[C@]12C`, the Activity result in the data set on RAW264.7 [1] is recorded as “Non-Toxic”. In the data set with RAW264.7 [2], the IC50 was 8.23 µM and the inhibition entry is “Dose-Dependent Effect”. In addition, the inhibition at 10 µM with RAW264.7 [3] is over 50%.

Regarding `C[C@H](CCC(=O)N1CCN(C(=O)/C=C/c2cccc(OC(F)(F)F)c2)CC1)[C@H]1CC[C@H]2[C@@H]3[C@@H](O)C[C@@H]4C[C@H](O)CC[C@]4(C)[C@H]3CC[C@]12C`, the Activity entry in the data set on RAW264.7 [1] is given as “Non-Toxic”. Moreover, in the data set with RAW264.7 [2], the IC50 was determined as 8.58 µM and the inhibition entry is “Dose-Dependent Effect”. Further, the inhibition at 10 µM in the data set with RAW264.7 [3] is over 50%.

For the molecule `C/C(=C\c1ccccc1)C(=O)N1CCN(C(=O)CC[C@@H](C)[C@H]2CC[C@H]3[C@@H]4[C@@H](O)C[C@@H]5C[C@H](O)CC[C@]5(C)[C@H]4CC[C@]23C)CC1`, in the data set with RAW264.7 [1], the Activity entry is “Non-Toxic”.

Consider `COc1cc(/C=C/C(=O)N2CCN(C(=O)CC[C@@H](C)[C@H]3CC[C@H]4[C@@H]5[C@@H](O)C[C@@H]6C[C@H](O)CC[C@]6(C)[C@H]5CC[C@]34C)CC2)ccc1O`, for which the Activity result in the data set on RAW264.7 [1] is reported as “Non-Toxic”.

On to `COc1cc(/C=C/C(=O)N2CCN(C(=O)CC[C@@H](C)[C@H]3CC[C@H]4[C@@H]5[C@@H](O)C[C@@H]6C[C@H](O)CC[C@]6(C)[C@H]5CC[C@]34C)CC2)cc(OC)c1OC`, for which the Activity entry in the data set on RAW264.7 [1] is listed as “Non-Toxic”. In addition, in the data set with RAW264.7 [2], the IC50 was 9.49 µM and the inhibition result was “Dose-Dependent Effect”. In the data set on RAW264.7 [3], the inhibition at 10 µM is over 50%.

With `C[C@H](CCC(=O)N1CCN(C(=O)/C=C/c2ccc(F)cc2F)CC1)[C@H]1CC[C@H]2[C@@H]3[C@@H](O)C[C@@H]4C[C@H](O)CC[C@]4(C)[C@H]3CC[C@]12C`, the Activity result with RAW264.7 [1] is given as “Toxic”.

Turning to `COc1cc(/C=C\C(=O)N2CCN(C(=O)CC[C@@H](C)[C@H]3CC[C@H]4[C@@H]5[C@@H](O)C[C@@H]6C[C@H](O)CC[C@]6(C)[C@H]5CC[C@]34C)CC2)cc(OC)c1OC`, the Activity entry in the data set with RAW264.7 [1] is “Non-Toxic”.

On to `C[C@H](CCC(=O)N1CCN(C(=O)/C=C/c2ccccc2)CC1)[C@H]1CC[C@H]2[C@@H]3[C@@H](O)C[C@@H]4C[C@H](O)CC[C@]4(C)[C@H]3CC[C@]12C`, for which the Activity result with RAW264.7 [1] is recorded as “Non-Toxic”. Besides, in the data set with RAW264.7 [2], the IC50 is 9.5 µM and the inhibition entry is “Dose-Dependent Effect”. Besides, in the data set on RAW264.7 [3], the inhibition at 10 µM was over 50%.

Take `C[C@H](CCC(=O)N1CCN(C(=O)/C=C/c2cccc(O)c2)CC1)[C@H]1CC[C@H]2[C@@H]3[C@@H](O)C[C@@H]4C[C@H](O)CC[C@]4(C)[C@H]3CC[C@]12C`: in the data set with RAW264.7 [1], the Activity result is recorded as “Non-Toxic”.

For `CC(=O)O[C@@H]1CC[C@@]2(C)[C@@H](C1)C[C@H](OC(C)=O)[C@@H]1[C@@H]2CC[C@]2(C)[C@@H]([C@H](C)CCC(=O)N3CCN(C(=O)/C=C/c4ccc(C)cc4)CC3)CC[C@@H]12`, in the data set with RAW264.7 [1], the Activity result is given as “Non-Toxic”.

Regarding `C[C@H](CCC(=O)N1CCN(C(=O)/C=C/c2cccc3ccccc23)CC1)[C@H]1CC[C@H]2[C@@H]3[C@@H](O)C[C@@H]4C[C@H](O)CC[C@]4(C)[C@H]3CC[C@]12C`, the Activity result in the data set with RAW264.7 [1] was “Non-Toxic”.

Consider `C[C@H](CCC(=O)N1CCN(C(=O)/C=C/c2cc(F)cc(F)c2)CC1)[C@H]1CC[C@H]2[C@@H]3[C@@H](O)C[C@@H]4C[C@H](O)CC[C@]4(C)[C@H]3CC[C@]12C`, for which the Activity entry in the data set with RAW264.7 [1] is reported as “Non-Toxic”.

For `C[C@H](CCC(=O)N1CCN(C(=O)/C=C/c2ccc3c(c2)OCO3)CC1)[C@H]1CC[C@H]2[C@@H]3[C@@H](O)C[C@@H]4C[C@H](O)CC[C@]4(C)[C@H]3CC[C@]12C`, the Activity entry with RAW264.7 [1] is on record as “Non-Toxic”.

In the case of `Cc1ccc(/C=C/C(=O)N2CCN(C(=O)CC[C@@H](C)[C@H]3CC[C@H]4[C@@H]5C(=O)C[C@@H]6CC(=O)CC[C@]6(C)[C@H]5CC[C@]34C)CC2)cc1`, in the data set with RAW264.7 [1], the Activity entry is “Toxic”.

For `C[C@H](CCC(=O)N1CCN(C(=O)/C=C/c2cccc(Cl)c2)CC1)[C@H]1CC[C@H]2[C@@H]3[C@@H](O)C[C@@H]4C[C@H](O)CC[C@]4(C)[C@H]3CC[C@]12C`, the Activity entry in the data set on RAW264.7 [1] is reported as “Non-Toxic”.

On to `C[C@H](CCC(=O)N1CCN(C(=O)CCc2ccccc2)CC1)[C@H]1CC[C@H]2[C@@H]3[C@@H](O)C[C@@H]4C[C@H](O)CC[C@]4(C)[C@H]3CC[C@]12C`, for which the Activity entry in the data set on RAW264.7 [1] is “Non-Toxic”.

Consider `C[C@H](CCC(=O)N1CCN(C(=O)/C=C/c2ccccc2Cl)CC1)[C@H]1CC[C@H]2[C@@H]3[C@@H](O)C[C@@H]4C[C@H](O)CC[C@]4(C)[C@H]3CC[C@]12C`, for which, in the data set on RAW264.7 [1], the Activity entry is on record as “Non-Toxic”.

`C[C@H](CCC(=O)N1CCN(C(=O)/C=C/c2ccc(C(F)(F)F)cc2)CC1)[C@H]1CC[C@H]2[C@@H]3[C@@H](O)C[C@@H]4C[C@H](O)CC[C@]4(C)[C@H]3CC[C@]12C`: in the data set on RAW264.7 [1], the Activity result is listed as “Non-Toxic”.

As for `C[C@H](CCC(=O)N1CCN(C(=O)/C=C\c2ccc3c(c2)OCO3)CC1)[C@H]1CC[C@H]2[C@@H]3[C@@H](O)C[C@@H]4C[C@H](O)CC[C@]4(C)[C@H]3CC[C@]12C`, the Activity entry with RAW264.7 [1] is “Non-Toxic”.

On to `C[C@H](CCC(=O)N1CCN(C(=O)/C=C/c2ccc(Cl)c(Cl)c2)CC1)[C@H]1CC[C@H]2[C@@H]3[C@@H](O)C[C@@H]4C[C@H](O)CC[C@]4(C)[C@H]3CC[C@]12C`, for which the Activity result with RAW264.7 [1] is listed as “Non-Toxic”.

With `C[C@H](CCC(=O)N1CCN(C(=O)/C=C/c2ccccc2O)CC1)[C@H]1CC[C@H]2[C@@H]3[C@@H](O)C[C@@H]4C[C@H](O)CC[C@]4(C)[C@H]3CC[C@]12C`, the Activity entry in the data set with RAW264.7 [1] is recorded as “Non-Toxic”.

Regarding `COc1cc(/C=C\C(=O)N2CCN(C(=O)CC[C@@H](C)[C@H]3CC[C@H]4[C@@H]5[C@@H](O)C[C@@H]6C[C@H](O)CC[C@]6(C)[C@H]5CC[C@]34C)CC2)ccc1O`, the Activity entry in the data set with RAW264.7 [1] is “Non-Toxic”.

As for `C[C@H](CCC(=O)N1CCN(C(=O)/C=C/c2ccc(OC(F)(F)F)cc2)CC1)[C@H]1CC[C@H]2[C@@H]3[C@@H](O)C[C@@H]4C[C@H](O)CC[C@]4(C)[C@H]3CC[C@]12C`, the Activity entry in the data set with RAW264.7 [1] is listed as “Toxic”.

As for `C[C@H](CCC(=O)N1CCN(C(=O)/C=C/c2cc(F)c(F)c(F)c2)CC1)[C@H]1CC[C@H]2[C@@H]3[C@@H](O)C[C@@H]4C[C@H](O)CC[C@]4(C)[C@H]3CC[C@]12C`, the Activity entry with RAW264.7 [1] is reported as “Toxic”.

As to `COc1cc(/C=C/C(=O)N2CCN(C(=O)CC[C@@H](C)[C@H]3CC[C@H]4[C@@H]5[C@@H](O)C[C@@H]6C[C@H](O)CC[C@]6(C)[C@H]5CC[C@]34C)CC2)cc(OC)c1O`, in the data set on RAW264.7 [1], the Activity entry was “Toxic”.

Consider `COc1ccc(/C=C/C(=O)N2CCN(C(=O)CC[C@@H](C)[C@H]3CC[C@H]4[C@@H]5[C@@H](O)C[C@@H]6C[C@H](O)CC[C@]6(C)[C@H]5CC[C@]34C)CC2)cc1`, for which, in the data set with RAW264.7 [1], the Activity result is “Non-Toxic”.

On to `C[C@H](CCC(=O)N1CCN(C(=O)/C=C/c2ccc(F)c(F)c2)CC1)[C@H]1CC[C@H]2[C@@H]3[C@@H](O)C[C@@H]4C[C@H](O)CC[C@]4(C)[C@H]3CC[C@]12C`, for which, in the data set on RAW264.7 [1], the Activity result is reported as “Non-Toxic”.

For the origin of these results see ChEMBL document CHEMBL5625254, “Design, synthesis and evaluation of ursodeoxycholic acid-cinnamic acid hybrids as potential anti-inflammatory agents by inhibiting Akt/NF-κB and MAPK signaling pathways” (Eur J Med Chem, 2023).
